# Experiments:
# [1] = system: LPS-induced nitric oxide production in RAW264.7 cells; test: LPS-induced NO production, Griess Reagent assay; format: cell-based, mouse; settings: for IC50 / inhibition at 10 µM: Mus musculus; for IC50: LPS (0.5 μg/mL) 24 h; for inhibition at 10 µM: compounds 10 μM, 1 h, then LPS (0.5 μg/mL) 24 h, read-out: Inhibition rate±SD (%) against NO production
# Method: RAW264.7 cells (7 × 10^4 cells/well) were seeded into 48-well plate and used for experiments after 24 h. […] After 24 h collect cell supernatant, NO production was measured using Griess Reagent assay (Beyotime). Griess reagent were mixed at a ratio of 1:1, and reacted at room temperature for 15 min. Measurement of absorbance at […] with enzyme reader. At least three independent experiments were performed for the determination of IC50 values, which were shown as mean ± SD. All experimental data were analysed by using GraphPad Prism software, version 8.0 (GraphPad Inc.).
# [2] = Cell viability assay (MTT), RAW264.7; format: cell-based, mouse; settings: mouse, RAW264.7 cells, read-out: Cytotoxicity IC50 with RAW264.7
# Method: RAW264.7 cells (1 × 10^4 cells/well) were seeded into 96-well plate and used for experiments after 24 h. Compounds (4 µM, 20 µM and 100 µM) treated cell for 24 h. Forty microliters of MTT solution (5 mg/mL, Sigma-Aldrich) was then added and incubated for an additional 4 h. After 4 h, cell culture supernatants were removed and DMSO (150 µL) was added into per well for dissolving the resulting crystals. Shaking about 1 0 ∼ 15 min and the absorbance at 492 nm was measured by a microplate reader (MQX200, Bio-Tek, Winooski, VT). At least three independent experiments were performed for the determination of IC50 values, which were shown as mean ± SD. All experimental data were analysed by using GraphPad Prism software, version 8.0 (GraphPad Inc.).
# [3] = Cell viability assay (MTT), LO2; format: cell-based; settings: human, LO2 cells, read-out: Cytotoxicity IC50 with LO2
IC50 [1],melting point,Structure (SMILES),inhibition at 10 µM [1],IC50 at 24 h [2],IC50 at 24 h [3],"Inhibitory activity on LPS-induced NO secretion, in words ([1]; 10 µM)"
> 10 µM,125 to 126 °C,"CCN1CCN(C(=O)Nc2cc(C(C)=O)c(O)cc2OC)CC1 [Compound A13, N-(5-acetyl-4-hydroxy-2-methoxyphenyl)-4-ethylpiperazine-1-carboxamide]",35.1 ± 2.87%,> 100 µM,> 100 µM,
> 10 µM,132 to 134 °C,"CCN(CC)C(=O)Nc1cc(C(C)=O)c(O)cc1OC [Compound A2, 3–(5-acetyl-4-hydroxy-2-methoxyphenyl)-1,1-diethylurea]",30.2 ± 4.89%,> 100 µM,> 100 µM,
> 10 µM,194 to 195 °C,"COc1cc(O)c(C(C)=O)cc1NC(=O)NCc1ccccc1 [Compound C2, 1–(5-acetyl-4-hydroxy-2-methoxyphenyl)-3-benzylurea]",7.86 ± 2.19%,> 100 µM,> 100 µM,
> 10 µM,,"COc1ccccc1CNC(=O)Nc1cc(C(C)=O)c(O)cc1OC [Compound C6, 1–(5-acetyl-4-hydroxy-2-methoxyphenyl)-3–(2-methoxybenzyl) urea]",8.12 ± 6.12%,> 100 µM,> 100 µM,
> 10 µM,,"COc1cc(O)c(C(C)=O)cc1NC(=O)NCCc1ccccc1F [Compound D4, 1–(5-acetyl-4-hydroxy-2-methoxyphenyl)-3–(2-fluorophenethyl)urea]",17.7 ± 2.15%,> 100 µM,> 100 µM,
> 10 µM,209 to 210 °C,"COc1cc(O)c(C(C)=O)cc1NC(=O)Nc1ccc(OC(F)(F)F)cc1 [Compound B13, 1–(5-acetyl-4-hydroxy-2-methoxyphenyl)-3–(4-(trifluoromethoxy)phenyl) urea]",25.1 ± 4.18%,> 100 µM,> 100 µM,
> 10 µM,209 to 210 °C,"COc1cc(O)c(C(C)=O)cc1NC(=O)Nc1cccc(C)c1 [Compound B2, 1–(5-acetyl-4-hydroxy-2-methoxyphenyl)-3-(m-tolyl) urea]",48.7 ± 5.49%,> 100 µM,> 100 µM,
> 10 µM,141 to 142 °C,"COc1cc(O)c(C(C)=O)cc1NC(=O)N1CCN(C)CC1 [Compound A10, N-(5-acetyl-4-hydroxy-2-methoxyphenyl)-4-methylpiperazine-1-carboxamide]",26 ± 5.12%,> 100 µM,> 100 µM,
> 10 µM,176 to 177 °C,"CONC(=O)Nc1cc(C(C)=O)c(O)cc1OC [Compound A4, 1–(5-acetyl-4-hydroxy-2-methoxyphenyl)-3-methoxyurea]",15.2 ± 4.18%,> 100 µM,> 100 µM,
9.45 µM,,"COc1cc(O)c(C(C)=O)cc1NC(=O)Nc1ccccc1 [Compound B1, 1–(5-acetyl-4-hydroxy-2-methoxyphenyl)-3-phenylurea]",51 ± 3.25%,> 100 µM,> 100 µM,
6.88 µM,228 to 229 °C,"COc1ccccc1NC(=O)Nc1cc(C(C)=O)c(O)cc1OC [Compound B9, 1–(5-acetyl-4-hydroxy-2-methoxyphenyl)-3–(2-methoxyphenyl) urea]",56.7 ± 4.28%,> 100 µM,> 100 µM,weak to moderate inhibitory activity
> 10 µM,118 to 120 °C,"COc1cc(O)c(C(C)=O)cc1NC(=O)N1CCCC1 [Compound A12, N-(5-acetyl-4-hydroxy-2-methoxyphenyl) pyrrolidine-1-carboxamide]",32.1 ± 4.17%,> 100 µM,> 100 µM,
> 10 µM,233 to 234 °C,"COc1ccc(CNC(=O)Nc2cc(C(C)=O)c(O)cc2OC)cc1 [Compound C5, 1–(5-acetyl-4-hydroxy-2-methoxyphenyl)-3–(4-methoxybenzyl) urea]",6.25 ± 5.16%,> 100 µM,> 100 µM,
> 10 µM,180 to 181 °C,"COc1ccc(CCNC(=O)Nc2cc(C(C)=O)c(O)cc2OC)cc1 [Compound D3, 1–(5-acetyl-4-hydroxy-2-methoxyphenyl)-3–(4-methoxyphenethyl) urea]",33.3 ± 3.18%,> 100 µM,> 100 µM,
> 10 µM,,"Cc1ccc(-c2cc(C(F)(F)F)nn2-c2ccc(S(N)(=O)=O)cc2)cc1 [Cel, Celecoxib, reference compound]",30.1 ± 2.33%,> 100 µM,> 100 µM,
> 10 µM,,"COc1cc(O)c(C(C)=O)cc1NC(=O)NCc1ccccc1Cl [Compound C1, 1–(5-acetyl-4-hydroxy-2-methoxyphenyl)-3–(2-chlorobenzyl) urea]",33.7 ± 6.15%,> 100 µM,> 100 µM,
> 10 µM,,"COc1cc(O)c(C(C)=O)cc1NC(=O)NCCc1ccccc1 [Compound D1, 1–(5-acetyl-4-hydroxy-2-methoxyphenyl)-3-phenethylurea]",15.3 ± 5.12%,> 100 µM,> 100 µM,
> 10 µM,232 to 234 °C,"COc1cc(O)c(C(C)=O)cc1NC(=O)NCC(F)(F)F [Compound A5, 1–(5-acetyl-4-hydroxy-2-methoxyphenyl)-3–(2,2,2-trifluoroethyl) urea]",23.1 ± 3.25%,> 100 µM,> 100 µM,
4.7 µM,,"COc1cccc(NC(=O)Nc2cc(C(C)=O)c(O)cc2OC)c1 [Compound B8, 1–(5-acetyl-4-hydroxy-2-methoxyphenyl)-3–(3-methoxyphenyl) urea]",74.7 ± 6.15%,> 100 µM,> 100 µM,
> 10 µM,211 to 212 °C,"CCNC(=O)Nc1cc(C(C)=O)c(O)cc1OC [Compound A6, 1–(5-acetyl-4-hydroxy-2-methoxyphenyl)-3-ethylurea]",16.2 ± 6.01%,> 100 µM,> 100 µM,
> 10 µM,172 to 174 °C,"COc1cc(O)c(C(C)=O)cc1NC(=O)N1CCSC1 [Compound A14, N-(5-acetyl-4-hydroxy-2-methoxyphenyl) thiazolidine-3-carboxamide]",24.1 ± 5.16%,> 100 µM,> 100 µM,
> 10 µM,211 to 213 °C,"CNC(=O)Nc1cc(C(C)=O)c(O)cc1OC [Compound A1, 1–(5-acetyl-4-hydroxy-2-methoxyphenyl)-3-methylurea]",20.1 ± 6.12%,> 100 µM,> 100 µM,
> 10 µM,,"COc1cc(O)c(C(C)=O)cc1NC(=O)NC(C)(C)C [Compound A8, 1–(5-acetyl-4-hydroxy-2-methoxyphenyl)-3-(tert-butyl) urea]",12.3 ± 4.12%,> 100 µM,> 100 µM,
5.08 µM,,"COc1cc(O)c(C(C)=O)cc1NC(=O)Nc1ccc(C(F)(F)F)cc1 [Compound B11, 1–(5-acetyl-4-hydroxy-2-methoxyphenyl)-3–(4-(trifluoromethyl)phenyl) urea]",60.9 ± 4.12%,> 100 µM,> 100 µM,
> 10 µM,176 to 177 °C,"COc1cc(O)c(C(C)=O)cc1NC(=O)N(C)C [Compound A7, 3–(5-acetyl-4-hydroxy-2-methoxyphenyl)-1,1-dimethylurea]",33.7 ± 5.02%,> 100 µM,> 100 µM,
6.22 µM,,"COc1cc(O)c(C(C)=O)cc1NC(=O)Nc1cccc(F)c1 [Compound B5, 1–(5-acetyl-4-hydroxy-2-methoxyphenyl)-3–(3-fluorophenyl) urea]",63 ± 3.87%,> 100 µM,> 100 µM,
> 10 µM,220 to 221 °C,"COc1cc(O)c(C(C)=O)cc1NC(=O)N1CCOCC1 [Compound A11, N-(5-acetyl-4-hydroxy-2-methoxyphenyl) morpholine-4-carboxamide]",29.8 ± 3.74%,> 100 µM,> 100 µM,
> 10 µM,224 to 225 °C,"COc1cc(O)c(C(C)=O)cc1NC(=O)NCCc1ccc(F)cc1 [Compound D2, 1–(5-acetyl-4-hydroxy-2-methoxyphenyl)-3–(4-fluorophenethyl) urea]",30.2 ± 3.98%,> 100 µM,> 100 µM,

# From paper PMC8890542, “Discovery of novel paeonol-based derivatives against skin inflammation in vitro and in vivo” (Journal of Enzyme Inhibition and Medicinal Chemistry, 2022)
